Experimental data from the kinase profiling compilation of Christmann-Franck et al. (2016).

Columns and labels:
Test in all cases: KINOMEscan competition binding
[1] = tested on: KIT (human), P10721 [V559D/V654A]; settings: compound 10.0 µM
DAPK3 (human) = DAPK3 (human) (UniProt O43293); settings: compound 10.0 µM
[2] = tested on: KIT (human), P10721 [V559D]; settings: compound 10.0 µM
TAOK3 (human) = TAOK3 (human) (UniProt Q9H2K8); settings: compound 10.0 µM
DMPK (human) = DMPK (human) (UniProt Q09013); settings: compound 10.0 µM
TNK1 (human) = TNK1 (human) (UniProt Q13470); settings: compound 10.0 µM
CLK1 (human) = CLK1 (human) (UniProt P49759); settings: for kinase still bound, per cent of control: compound 10.0 µM
TLK1 (human) = TLK1 (human) (UniProt Q9UKI8); settings: compound 10.0 µM
MAP2K4 (human) = MAP2K4 (human) (UniProt P45985); settings: compound 10.0 µM
TGFBR2 (human) = TGFBR2 (human) (UniProt P37173); settings: compound 10.0 µM
GSK3A (human) = GSK3A (human) (UniProt P49840); settings: compound 10.0 µM
RPS6KA2 KD2 (human) = RPS6KA2 KD2 (human) (UniProt Q15349); settings: compound 10.0 µM
CSNK1E (human) = CSNK1E (human) (UniProt P49674); settings: compound 10.0 µM
PIM3 (human) = PIM3 (human) (UniProt Q86V86); settings: for kinase still bound, per cent of control: compound 10.0 µM
[3] = tested on: EIF2AK4 KD2 (human), Q9P2K8 [S808G]; settings: compound 10.0 µM
CLK2 (human) = CLK2 (human) (UniProt P49760); settings: for kinase still bound, per cent of control: compound 10.0 µM
[4] = tested on: EGFR (human), P00533 [747-751 del / S ins]; settings: compound 10.0 µM
MKNK2 (human) = MKNK2 (human) (UniProt Q9HBH9); settings: compound 10.0 µM
DAPK1 (human) = DAPK1 (human) (UniProt P53355); settings: for kinase still bound, per cent of control: compound 10.0 µM
STK11 (human) = STK11 (human) (UniProt Q15831); settings: compound 10.0 µM
ACVR2A (human) = ACVR2A (human) (UniProt P27037); settings: compound 10.0 µM
GAK (human) = GAK (human) (UniProt O14976); settings: compound 10.0 µM
[5] = tested on: FLT3 (human), P36888 [N841I]; settings: compound 10.0 µM
[6] = tested on: FLT3 (human), P36888 [K663Q]; settings: compound 10.0 µM
PIK3CG (human) = PIK3CG (human) (UniProt P48736); settings: compound 10.0 µM
[7] = tested on: FLT3 (human), P36888 [ITD]; settings: compound 10.0 µM
RIOK3 (human) = RIOK3 (human) (UniProt O14730); settings: compound 10.0 µM
PHKG2 (human) = PHKG2 (human) (UniProt P15735); settings: compound 10.0 µM
TAOK1 (human) = TAOK1 (human) (UniProt Q7L7X3); settings: compound 10.0 µM
[8] = biological target: TYK2 JH2 pseudokinase (human) (UniProt P29597); settings: compound 10.0 µM
CSNK2A2 (human) = CSNK2A2 (human) (UniProt P19784); settings: for kinase still bound, per cent of control: compound 10.0 µM
CSNK2A1 (human) = CSNK2A1 (human) (UniProt P68400); settings: for kinase still bound, per cent of control: compound 10.0 µM
PIP4K2B (human) = PIP4K2B (human) (UniProt P78356); settings: compound 10.0 µM
AURKB (human) = AURKB (human) (UniProt Q96GD4); settings: compound 10.0 µM
AURKC (human) = AURKC (human) (UniProt Q9UQB9); settings: compound 10.0 µM
TNIK (human) = TNIK (human) (UniProt Q9UKE5); settings: compound 10.0 µM
MAP3K7 (human) = MAP3K7 (human) (UniProt O43318); settings: compound 10.0 µM
RIOK1 (human) = RIOK1 (human) (UniProt Q9BRS2); settings: compound 10.0 µM
MAPK15 (human) = MAPK15 (human) (UniProt Q8TD08); settings: for kinase still bound, per cent of control: compound 10.0 µM
[9] = tested on: FLT3 (human), P36888 [D835Y]; settings: compound 10.0 µM
SRPK3 (human) = SRPK3 (human) (UniProt Q9UPE1); settings: compound 10.0 µM
CHUK (human) = CHUK (human) (UniProt O15111); settings: compound 10.0 µM

CLK1 (human), sequence (P49759 whole entry, looked up): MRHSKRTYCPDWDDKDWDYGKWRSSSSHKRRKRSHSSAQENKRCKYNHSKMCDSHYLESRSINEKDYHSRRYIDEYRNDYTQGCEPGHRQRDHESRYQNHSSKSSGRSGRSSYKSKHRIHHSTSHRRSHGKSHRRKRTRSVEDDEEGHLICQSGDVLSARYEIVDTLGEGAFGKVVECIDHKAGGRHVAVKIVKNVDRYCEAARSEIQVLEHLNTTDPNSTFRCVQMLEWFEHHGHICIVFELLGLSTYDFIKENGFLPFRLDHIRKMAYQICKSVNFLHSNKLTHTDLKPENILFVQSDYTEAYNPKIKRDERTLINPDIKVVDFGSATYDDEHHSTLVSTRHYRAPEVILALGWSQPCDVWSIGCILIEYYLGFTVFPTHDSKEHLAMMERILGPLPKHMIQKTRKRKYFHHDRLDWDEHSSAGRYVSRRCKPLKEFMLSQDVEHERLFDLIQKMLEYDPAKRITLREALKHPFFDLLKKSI
CLK2 (human), sequence (P49760 whole entry, looked up): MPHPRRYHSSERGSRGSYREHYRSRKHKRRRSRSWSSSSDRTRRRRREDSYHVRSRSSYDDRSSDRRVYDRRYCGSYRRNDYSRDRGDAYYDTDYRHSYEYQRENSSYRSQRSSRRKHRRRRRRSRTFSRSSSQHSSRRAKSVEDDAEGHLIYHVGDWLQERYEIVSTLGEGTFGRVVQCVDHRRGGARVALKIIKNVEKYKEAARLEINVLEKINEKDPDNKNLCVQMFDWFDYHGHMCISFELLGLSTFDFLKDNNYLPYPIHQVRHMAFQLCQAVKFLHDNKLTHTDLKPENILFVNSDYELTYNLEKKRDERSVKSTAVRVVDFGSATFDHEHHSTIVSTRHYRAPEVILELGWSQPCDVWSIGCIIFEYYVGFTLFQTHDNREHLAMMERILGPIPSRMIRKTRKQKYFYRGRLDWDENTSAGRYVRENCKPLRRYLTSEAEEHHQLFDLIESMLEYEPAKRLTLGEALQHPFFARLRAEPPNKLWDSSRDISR
CSNK2A1 (human), sequence (P68400 whole entry, looked up): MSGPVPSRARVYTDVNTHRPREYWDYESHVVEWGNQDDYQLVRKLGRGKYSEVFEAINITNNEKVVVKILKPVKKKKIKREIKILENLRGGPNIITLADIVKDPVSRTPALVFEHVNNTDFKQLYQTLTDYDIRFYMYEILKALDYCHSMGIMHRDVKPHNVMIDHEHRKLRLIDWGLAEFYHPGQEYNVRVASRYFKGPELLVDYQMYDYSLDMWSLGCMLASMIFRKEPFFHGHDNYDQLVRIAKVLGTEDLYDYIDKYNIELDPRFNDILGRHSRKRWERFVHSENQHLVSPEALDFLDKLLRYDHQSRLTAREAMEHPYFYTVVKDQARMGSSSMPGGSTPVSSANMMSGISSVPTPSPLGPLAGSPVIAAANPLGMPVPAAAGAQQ
DAPK1 (human), sequence (P53355 whole entry, looked up): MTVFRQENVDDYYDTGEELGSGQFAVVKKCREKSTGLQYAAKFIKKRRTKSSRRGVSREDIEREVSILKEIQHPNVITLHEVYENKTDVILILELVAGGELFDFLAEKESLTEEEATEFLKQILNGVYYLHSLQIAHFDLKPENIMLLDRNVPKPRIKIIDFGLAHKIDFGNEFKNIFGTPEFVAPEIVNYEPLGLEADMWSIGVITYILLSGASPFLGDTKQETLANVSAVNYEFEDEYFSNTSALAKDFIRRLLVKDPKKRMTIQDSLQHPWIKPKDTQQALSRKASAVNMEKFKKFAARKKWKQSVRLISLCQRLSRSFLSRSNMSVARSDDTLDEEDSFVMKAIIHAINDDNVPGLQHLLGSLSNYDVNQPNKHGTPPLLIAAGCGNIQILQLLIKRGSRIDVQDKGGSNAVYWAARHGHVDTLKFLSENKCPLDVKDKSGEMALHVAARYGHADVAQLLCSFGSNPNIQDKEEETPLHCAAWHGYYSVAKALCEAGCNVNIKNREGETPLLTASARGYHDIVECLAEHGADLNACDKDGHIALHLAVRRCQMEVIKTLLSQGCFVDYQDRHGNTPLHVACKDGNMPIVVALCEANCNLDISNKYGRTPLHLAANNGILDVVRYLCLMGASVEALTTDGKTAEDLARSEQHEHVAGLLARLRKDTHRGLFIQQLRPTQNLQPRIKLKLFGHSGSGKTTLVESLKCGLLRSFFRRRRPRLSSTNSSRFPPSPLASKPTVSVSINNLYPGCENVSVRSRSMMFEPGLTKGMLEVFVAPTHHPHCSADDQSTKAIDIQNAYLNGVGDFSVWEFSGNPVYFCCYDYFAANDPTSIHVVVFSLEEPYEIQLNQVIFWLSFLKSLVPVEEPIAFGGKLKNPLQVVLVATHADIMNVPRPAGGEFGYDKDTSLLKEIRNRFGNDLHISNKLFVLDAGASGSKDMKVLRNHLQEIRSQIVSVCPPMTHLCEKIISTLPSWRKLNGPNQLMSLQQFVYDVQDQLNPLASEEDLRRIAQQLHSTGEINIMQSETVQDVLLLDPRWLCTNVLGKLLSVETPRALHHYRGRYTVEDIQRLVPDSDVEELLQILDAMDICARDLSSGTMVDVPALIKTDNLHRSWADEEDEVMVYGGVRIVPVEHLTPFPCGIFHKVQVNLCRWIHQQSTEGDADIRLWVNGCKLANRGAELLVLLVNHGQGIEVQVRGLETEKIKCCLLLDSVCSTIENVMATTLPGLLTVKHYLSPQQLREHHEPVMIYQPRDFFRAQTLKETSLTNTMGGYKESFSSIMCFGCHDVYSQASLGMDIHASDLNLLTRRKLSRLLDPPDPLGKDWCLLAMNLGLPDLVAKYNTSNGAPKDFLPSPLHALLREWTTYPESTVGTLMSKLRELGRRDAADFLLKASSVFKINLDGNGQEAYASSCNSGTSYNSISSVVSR
MAPK15 (human), sequence (Q8TD08 whole entry, looked up): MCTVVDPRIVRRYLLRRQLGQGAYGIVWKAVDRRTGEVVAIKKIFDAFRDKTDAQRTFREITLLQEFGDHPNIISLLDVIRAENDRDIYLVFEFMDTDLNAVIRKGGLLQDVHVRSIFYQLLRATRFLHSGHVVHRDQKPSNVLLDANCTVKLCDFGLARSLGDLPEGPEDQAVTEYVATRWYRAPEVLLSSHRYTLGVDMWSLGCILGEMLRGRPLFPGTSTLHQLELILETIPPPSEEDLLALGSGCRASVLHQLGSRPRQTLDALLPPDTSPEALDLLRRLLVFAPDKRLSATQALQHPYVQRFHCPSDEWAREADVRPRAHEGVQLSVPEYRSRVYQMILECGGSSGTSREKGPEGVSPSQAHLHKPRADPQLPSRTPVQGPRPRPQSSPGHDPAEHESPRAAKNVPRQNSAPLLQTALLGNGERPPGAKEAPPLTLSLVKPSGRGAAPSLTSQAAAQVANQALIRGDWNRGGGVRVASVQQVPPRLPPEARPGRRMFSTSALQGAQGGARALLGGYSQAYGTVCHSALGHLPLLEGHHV
CSNK2A2 (human), sequence (P19784 whole entry, looked up): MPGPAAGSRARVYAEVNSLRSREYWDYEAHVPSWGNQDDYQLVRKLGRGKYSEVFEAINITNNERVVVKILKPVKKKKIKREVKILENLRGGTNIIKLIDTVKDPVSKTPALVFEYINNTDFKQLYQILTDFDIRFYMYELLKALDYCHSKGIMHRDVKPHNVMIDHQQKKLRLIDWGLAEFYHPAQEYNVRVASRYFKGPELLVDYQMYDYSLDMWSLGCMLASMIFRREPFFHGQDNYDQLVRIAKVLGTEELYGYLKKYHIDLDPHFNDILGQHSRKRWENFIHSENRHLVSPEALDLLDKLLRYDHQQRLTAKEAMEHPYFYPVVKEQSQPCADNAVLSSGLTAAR
KIT (human), P10721 [V559D/V654A], sequence (P10721 whole entry V559D/V654A, looked up): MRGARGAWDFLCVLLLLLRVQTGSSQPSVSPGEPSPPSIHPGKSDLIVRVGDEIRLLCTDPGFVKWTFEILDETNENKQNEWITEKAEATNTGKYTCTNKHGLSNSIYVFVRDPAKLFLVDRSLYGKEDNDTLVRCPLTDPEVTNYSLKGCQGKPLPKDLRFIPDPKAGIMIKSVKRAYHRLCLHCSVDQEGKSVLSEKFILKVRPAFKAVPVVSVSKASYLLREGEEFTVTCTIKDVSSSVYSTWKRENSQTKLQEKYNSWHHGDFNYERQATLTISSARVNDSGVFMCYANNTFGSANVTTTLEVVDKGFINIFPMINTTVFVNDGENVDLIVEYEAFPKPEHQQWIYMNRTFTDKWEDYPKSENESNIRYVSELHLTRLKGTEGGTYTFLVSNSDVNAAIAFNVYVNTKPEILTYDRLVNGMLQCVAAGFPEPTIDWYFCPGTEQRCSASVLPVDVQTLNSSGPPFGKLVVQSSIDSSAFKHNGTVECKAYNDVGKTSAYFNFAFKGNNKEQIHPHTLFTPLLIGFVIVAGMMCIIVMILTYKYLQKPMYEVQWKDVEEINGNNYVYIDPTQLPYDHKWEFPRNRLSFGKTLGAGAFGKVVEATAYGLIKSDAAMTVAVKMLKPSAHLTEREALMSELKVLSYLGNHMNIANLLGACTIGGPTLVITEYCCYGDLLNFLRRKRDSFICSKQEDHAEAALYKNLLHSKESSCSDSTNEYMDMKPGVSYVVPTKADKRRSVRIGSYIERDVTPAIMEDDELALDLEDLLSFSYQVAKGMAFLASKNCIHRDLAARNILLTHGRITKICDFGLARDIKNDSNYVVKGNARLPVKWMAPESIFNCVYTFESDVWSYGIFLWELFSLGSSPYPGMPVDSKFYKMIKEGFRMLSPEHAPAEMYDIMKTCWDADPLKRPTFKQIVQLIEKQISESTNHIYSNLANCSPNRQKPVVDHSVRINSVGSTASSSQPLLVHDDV
KIT (human), P10721 [V559D], sequence (P10721 whole entry V559D, looked up): as the sequence (P10721 whole entry V559D/V654A, looked up) above, with A654V counted along it

COc1cc(N2CCC(O)CC2)ccc1Nc1ncc2c(n1)N1CCc3cccc(c31)C(=O)N2C
kinase still bound, per cent of control [1]: 100% | kinase still bound, per cent of control (DAPK3 (human)): 37% | kinase still bound, per cent of control [2]: 93% | kinase still bound, per cent of control (TAOK3 (human)): 70% | kinase still bound, per cent of control (DMPK (human)): 65% | kinase still bound, per cent of control (TNK1 (human)): 5.8% | kinase still bound, per cent of control (CLK1 (human)): 73% | kinase still bound, per cent of control (TLK1 (human)): 91% | kinase still bound, per cent of control (MAP2K4 (human)): 82% | kinase still bound, per cent of control (TGFBR2 (human)): 100% | kinase still bound, per cent of control (GSK3A (human)): 100% | kinase still bound, per cent of control (RPS6KA2 KD2 (human)): 23% | kinase still bound, per cent of control (CSNK1E (human)): 92% | kinase still bound, per cent of control (PIM3 (human)): 92% | kinase still bound, per cent of control [3]: 100% | kinase still bound, per cent of control (CLK2 (human)): 55% | kinase still bound, per cent of control [4]: 64% | kinase still bound, per cent of control (MKNK2 (human)): 32% | kinase still bound, per cent of control (DAPK1 (human)): 44% | kinase still bound, per cent of control (STK11 (human)): 91% | kinase still bound, per cent of control (ACVR2A (human)): 100% | kinase still bound, per cent of control (GAK (human)): 12% | kinase still bound, per cent of control [5]: 93% | kinase still bound, per cent of control [6]: 96% | kinase still bound, per cent of control (PIK3CG (human)): 28% | kinase still bound, per cent of control [7]: 100% | kinase still bound, per cent of control (RIOK3 (human)): 92% | kinase still bound, per cent of control (PHKG2 (human)): 68% | kinase still bound, per cent of control (TAOK1 (human)): 60% | kinase still bound, per cent of control [8]: 70% | kinase still bound, per cent of control (CSNK2A2 (human)): 67% | kinase still bound, per cent of control (CSNK2A1 (human)): 100% | kinase still bound, per cent of control (PIP4K2B (human)): 100% | kinase still bound, per cent of control (AURKB (human)): 100% | kinase still bound, per cent of control (AURKC (human)): 89% | kinase still bound, per cent of control (TNIK (human)): 48% | kinase still bound, per cent of control (MAP3K7 (human)): 98% | kinase still bound, per cent of control (RIOK1 (human)): 100% | kinase still bound, per cent of control (MAPK15 (human)): 100% | kinase still bound, per cent of control [9]: 68% | kinase still bound, per cent of control (SRPK3 (human)): 89% | kinase still bound, per cent of control (CHUK (human)): 79%

O=C1NC(=O)/C(=C/c2c[nH]c(=O)c(-c3ccc(N4CCNCC4)nc3)c2)S1
kinase still bound, per cent of control [1]: 99% | kinase still bound, per cent of control (DAPK3 (human)): 1% | kinase still bound, per cent of control [2]: 70% | kinase still bound, per cent of control (TAOK3 (human)): 8.6% | kinase still bound, per cent of control (DMPK (human)): 3.6% | kinase still bound, per cent of control (TNK1 (human)): 100% | Kd (CLK1 (human)): 240 nM | kinase still bound, per cent of control (CLK1 (human)): 0.3% | kinase still bound, per cent of control (TLK1 (human)): 66% | kinase still bound, per cent of control (MAP2K4 (human)): 57% | kinase still bound, per cent of control (TGFBR2 (human)): 18% | kinase still bound, per cent of control (GSK3A (human)): 75% | kinase still bound, per cent of control (RPS6KA2 KD2 (human)): 1.2% | kinase still bound, per cent of control (CSNK1E (human)): 11% | Kd (PIM3 (human)): 3.7 nM | kinase still bound, per cent of control (PIM3 (human)): 0.65% | kinase still bound, per cent of control [3]: 2.6% | Kd (CLK2 (human)): 150 nM | kinase still bound, per cent of control (CLK2 (human)): 0% | kinase still bound, per cent of control [4]: 85% | kinase still bound, per cent of control (MKNK2 (human)): 93% | Kd (DAPK1 (human)): 9.5 nM | kinase still bound, per cent of control (DAPK1 (human)): 0.35% | kinase still bound, per cent of control (STK11 (human)): 17% | kinase still bound, per cent of control (ACVR2A (human)): 76% | kinase still bound, per cent of control (GAK (human)): 3.2% | kinase still bound, per cent of control [5]: 67% | kinase still bound, per cent of control [6]: 92% | kinase still bound, per cent of control (PIK3CG (human)): 0.3% | kinase still bound, per cent of control [7]: 75% | kinase still bound, per cent of control (RIOK3 (human)): 3.4% | kinase still bound, per cent of control (PHKG2 (human)): 6.6% | kinase still bound, per cent of control (TAOK1 (human)): 24% | kinase still bound, per cent of control [8]: 72% | Kd (CSNK2A2 (human)): 6.1 nM | kinase still bound, per cent of control (CSNK2A2 (human)): 0% | Kd (CSNK2A1 (human)): 31 nM | kinase still bound, per cent of control (CSNK2A1 (human)): 0.65% | kinase still bound, per cent of control (PIP4K2B (human)): 1.1% | kinase still bound, per cent of control (AURKB (human)): 71% | kinase still bound, per cent of control (AURKC (human)): 57% | kinase still bound, per cent of control (TNIK (human)): 11% | kinase still bound, per cent of control (MAP3K7 (human)): 91% | kinase still bound, per cent of control (RIOK1 (human)): 5% | Kd (MAPK15 (human)): 390 nM | kinase still bound, per cent of control (MAPK15 (human)): 0.5% | kinase still bound, per cent of control [9]: 60% | kinase still bound, per cent of control (SRPK3 (human)): 6% | kinase still bound, per cent of control (CHUK (human)): 53%
